Measurements from PubChem BioAssay (NCI).
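1) Cells in 96-well plates. 2) Compound, 48 h, 5 concentrations. 3) Linear interpolation between surrounding doses. 4) Unreached endpoint = highest concentration. TGI: concentration producing complete growth inhibition.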

Columns and labels:
Experiment in all cases: inhibition of tumour cell growth, NCI panel, 48 h
786-0 renal = system: 786-0 renal
A498 renal = system: A498 renal
A549 NSCLC = system: A549 NSCLC
ACHN renal = system: ACHN renal
CAKI-1 renal = system: CAKI-1 renal
CCRF-CEM leukemia = system: CCRF-CEM leukemia
COLO 205 colon = system: COLO 205 colon
DLD-1 colon = system: DLD-1 colon
DMS 114 small cell lung = system: DMS 114 small cell lung
DMS 273 small cell lung = system: DMS 273 small cell lung
EKVX NSCLC = system: EKVX NSCLC
HCC-2998 colon = system: HCC-2998 colon
HCT-116 colon = system: HCT-116 colon
HCT-15 colon = system: HCT-15 colon
HL-60(TB) leukemia = system: HL-60(TB) leukemia
HOP-18 NSCLC = system: HOP-18 NSCLC
HOP-62 NSCLC = system: HOP-62 NSCLC
HOP-92 NSCLC = system: HOP-92 NSCLC
HT29 colon = system: HT29 colon
IGROV1 ovarian = system: IGROV1 ovarian
K-562 leukemia = system: K-562 leukemia
KM12 colon = system: KM12 colon
KM20L2 colon = system: KM20L2 colon
LXFL 529 NSCLC = system: LXFL 529 NSCLC
M14 melanoma = system: M14 melanoma
M19-MEL melanoma = system: M19-MEL melanoma
MALME-3M melanoma = system: MALME-3M melanoma
MOLT-4 leukemia = system: MOLT-4 leukemia
NCI-H226 lung = system: NCI-H226 lung
NCI-H23 lung = system: NCI-H23 lung
NCI-H460 lung = system: NCI-H460 lung
NCI-H522 lung = system: NCI-H522 lung
OVCAR-3 ovarian = system: OVCAR-3 ovarian
OVCAR-4 ovarian = system: OVCAR-4 ovarian
OVCAR-5 ovarian = system: OVCAR-5 ovarian
OVCAR-8 ovarian = system: OVCAR-8 ovarian
RPMI-8226 leukemia = system: RPMI-8226 leukemia
RXF 393 renal = system: RXF 393 renal
SF-268 CNS = system: SF-268 CNS
SF-295 CNS = system: SF-295 CNS
SF-539 CNS = system: SF-539 CNS
SK-MEL-2 melanoma = system: SK-MEL-2 melanoma
SK-MEL-28 melanoma = system: SK-MEL-28 melanoma
SK-MEL-5 melanoma = system: SK-MEL-5 melanoma
SK-OV-3 ovarian = system: SK-OV-3 ovarian
SN12C renal = system: SN12C renal
SNB-19 CNS = system: SNB-19 CNS
SNB-75 CNS = system: SNB-75 CNS
SNB-78 CNS = system: SNB-78 CNS
SR leukemia = system: SR leukemia
SW-620 colon = system: SW-620 colon
U251 CNS = system: U251 CNS
UACC-257 melanoma = system: UACC-257 melanoma
UACC-62 melanoma = system: UACC-62 melanoma
UO-31 renal = system: UO-31 renal
LOX IMVI melanoma = system: LOX IMVI melanoma
TK-10 renal = system: TK-10 renal
XF 498 CNS = system: XF 498 CNS

CCCCCCCCCCCC(=O)OCC1OC(n2cc(F)c(=O)[nH]c2=O)C(N)C(O)C1O (stereo not given)
TGI (786-0 renal): > 100 µM
TGI (A498 renal): > 100 µM
TGI (A549 NSCLC): > 100 µM
TGI (ACHN renal): > 100 µM
TGI (CAKI-1 renal): > 100 µM
TGI (CCRF-CEM leukemia): > 100 µM
TGI (COLO 205 colon): > 100 µM
TGI (DLD-1 colon): > 100 µM
TGI (DMS 114 small cell lung): > 100 µM
TGI (DMS 273 small cell lung): > 100 µM
TGI (EKVX NSCLC): > 100 µM
TGI (HCC-2998 colon): > 100 µM
TGI (HCT-116 colon): > 100 µM
TGI (HCT-15 colon): > 100 µM
TGI (HL-60(TB) leukemia): > 100 µM
TGI (HOP-18 NSCLC): > 100 µM
TGI (HOP-62 NSCLC): > 100 µM
TGI (HOP-92 NSCLC): > 100 µM
TGI (HT29 colon): > 100 µM
TGI (IGROV1 ovarian): > 100 µM
TGI (K-562 leukemia): > 100 µM
TGI (KM12 colon): > 100 µM
TGI (KM20L2 colon): > 100 µM
TGI (LXFL 529 NSCLC): > 100 µM
TGI (M14 melanoma): > 100 µM
TGI (M19-MEL melanoma): > 100 µM
TGI (MALME-3M melanoma): > 100 µM
TGI (MOLT-4 leukemia): > 100 µM
TGI (NCI-H226 lung): > 100 µM
TGI (NCI-H23 lung): > 100 µM
TGI (NCI-H460 lung): > 100 µM
TGI (NCI-H522 lung): > 100 µM
TGI (OVCAR-3 ovarian): > 100 µM
TGI (OVCAR-4 ovarian): > 100 µM
TGI (OVCAR-5 ovarian): > 100 µM
TGI (OVCAR-8 ovarian): > 100 µM
TGI (RPMI-8226 leukemia): > 100 µM
TGI (RXF 393 renal): > 100 µM
TGI (SF-268 CNS): > 100 µM
TGI (SF-295 CNS): > 100 µM
TGI (SF-539 CNS): > 100 µM
TGI (SK-MEL-2 melanoma): > 100 µM
TGI (SK-MEL-28 melanoma): > 100 µM
TGI (SK-MEL-5 melanoma): > 100 µM
TGI (SK-OV-3 ovarian): > 100 µM
TGI (SN12C renal): > 100 µM
TGI (SNB-19 CNS): > 100 µM
TGI (SNB-75 CNS): > 100 µM
TGI (SNB-78 CNS): > 100 µM
TGI (SR leukemia): > 100 µM
TGI (SW-620 colon): > 100 µM
TGI (U251 CNS): > 100 µM
TGI (UACC-257 melanoma): > 100 µM
TGI (UACC-62 melanoma): > 100 µM
TGI (UO-31 renal): > 100 µM

COC(=O)/C(=C/CC(N=C(c1ccccc1)c1ccccc1)C(=O)OC)N=C(c1ccccc1)c1ccccc1 (stereo not given)
TGI (786-0 renal): > 100 µM
TGI (A549 NSCLC): > 100 µM
TGI (ACHN renal): > 100 µM
TGI (CAKI-1 renal): > 100 µM
TGI (CCRF-CEM leukemia): > 100 µM
TGI (COLO 205 colon): > 100 µM
TGI (DLD-1 colon): > 100 µM
TGI (DMS 114 small cell lung): 82.1 µM
TGI (DMS 273 small cell lung): > 100 µM
TGI (EKVX NSCLC): > 100 µM
TGI (HCC-2998 colon): > 100 µM
TGI (HCT-116 colon): > 100 µM
TGI (HCT-15 colon): > 100 µM
TGI (HL-60(TB) leukemia): > 100 µM
TGI (HOP-62 NSCLC): > 100 µM
TGI (HT29 colon): > 100 µM
TGI (IGROV1 ovarian): > 100 µM
TGI (K-562 leukemia): > 100 µM
TGI (KM12 colon): > 100 µM
TGI (LOX IMVI melanoma): > 100 µM
TGI (LXFL 529 NSCLC): > 100 µM
TGI (M14 melanoma): > 100 µM
TGI (M19-MEL melanoma): > 100 µM
TGI (MALME-3M melanoma): > 100 µM
TGI (MOLT-4 leukemia): > 100 µM
TGI (NCI-H23 lung): > 100 µM
TGI (NCI-H460 lung): > 100 µM
TGI (NCI-H522 lung): > 100 µM
TGI (OVCAR-3 ovarian): > 100 µM
TGI (OVCAR-4 ovarian): > 100 µM
TGI (OVCAR-8 ovarian): > 100 µM
TGI (RPMI-8226 leukemia): > 100 µM
TGI (RXF 393 renal): > 100 µM
TGI (SF-268 CNS): > 100 µM
TGI (SF-295 CNS): > 100 µM
TGI (SK-MEL-2 melanoma): > 100 µM
TGI (SK-MEL-28 melanoma): > 100 µM
TGI (SK-MEL-5 melanoma): > 100 µM
TGI (SK-OV-3 ovarian): > 100 µM
TGI (SN12C renal): > 100 µM
TGI (SNB-19 CNS): > 100 µM
TGI (SNB-75 CNS): 83.9 µM
TGI (SR leukemia): > 100 µM
TGI (SW-620 colon): > 100 µM
TGI (TK-10 renal): > 100 µM
TGI (U251 CNS): > 100 µM
TGI (UACC-257 melanoma): > 100 µM
TGI (UACC-62 melanoma): > 100 µM
TGI (UO-31 renal): > 100 µM
TGI (XF 498 CNS): > 100 µM
